Measurements published in PMC3467072 (Nucleic Acids Research, 2012).

System: Rv3066–IR1
Assay type: binding, Mycobacterium tuberculosis
Conditions: 1 µM ethidium versus no ethidium

CC[n+]1c(-c2ccccc2)c2cc(N)ccc2c2ccc(N)cc21 [ethidium, ethidium bromide]
Weakening of the binding affinity between Rv3066 and IR1: 2.4 times
